Test results as given in patent publication US4160828A, “Analgesic phosphinyl compounds and compositions” (Hoechst Aktiengesellschaft, priority 1978, dated 1979).

Key:
[1] = tested on: mice; assay: Toxicity by oral administration to mice; type: in vivo, mouse; details: versus Comparison Compound of the same test series
Description: (§1) The physiological activity of the compounds prepared in the Examples has been tested using various test methods and compared with the activities of various structurally similar commercial products. In each case, testing was carried out with equimolar quantities of the test compounds.
The toxicity was measured by oral administration to 50 mice.

[2] = tested on: rat; assay: Randall-Selitto Test in the rat, analgesic activity; type: in vivo; details: versus Comparison Compound of the same test series
Description: (§2) The physiological activity of the compounds prepared in the Examples has been tested using various test methods and compared with the activities of various structurally similar commercial products. In each case, testing was carried out with equimolar quantities of the test compounds. The analgesic activity was determined by the Writhing Test in the mouse using the method of E. Siegmund et al (Proceed. Soc. --Exp. Biol. Med. 95(1957) Page 729) and by the Randall-Selitto Test in the rat using the method of Randall and Selitto (Arch. Int. Pharmacodyn. 111(1957) Page 409).

[3] = tested on: carrageenin oedema on rat paws; assay: Carrageenin oedema test on rat paws (Winter et al), anti-inflammatory effect; type: in vivo; details: rat paw; versus Comparison Compound of the same test series
Description: (§3) The physiological activity of the compounds prepared in the Examples has been tested using various test methods and compared with the activities of various structurally similar commercial products. In each case, testing was carried out with equimolar quantities of the test compounds. The anti-inflammatory effect was measured by the carrageenin oedema test on rat paws using the method of Winter et al (Proceed. Soc. Exp. Biol. Med. 111(1962) Page 544) and in test series III) and also by the adjuvant arthritis test in the rat according to Pearson et al (Arthrit. Rheumat. 2(1959) page 440).

[4] = prior-art compound; cited from earlier work
[5] = prior-art compound; cited from earlier work; remark: listed apart in the source
[6] = tested on: rat; assay: Adjuvant arthritis test in the rat (Pearson et al), anti-inflammatory effect; type: in vivo; details: sub-chronic; for Adjuvant arthritis: test series III, equimolar quantities; for adjuvant arthritis test compared with comparison compound: versus Comparison Compound C
Description: as §3

[7] = Analgesic activity / overall physiological activity, in words; type: in vivo; details: test not specified; versus Comparison Compound C
Description: as §1
The analgesic activity was determined by the Writhing Test in the mouse using the method of E. Siegmund et al (Proceed. Soc. --Exp. Biol. Med. 95(1957) Page 729) and by the Randall-Selitto Test in the rat using the method of Randall and Selitto (Arch. Int. Pharmacodyn. 111(1957) Page 409).
The anti-inflammatory effect was measured by the carrageenin oedema test on rat paws using the method of Winter et al (Proceed. Soc. Exp. Biol. Med. 111(1962) Page 544) and in test series III) and also by the adjuvant arthritis test in the rat according to Pearson et al (Arthrit. Rheumat. 2(1959) page 440).

[8] = tested on: mouse; assay: Writhing Test in the mouse (Siegmund et al), analgesic activity; type: in vivo; details: versus Comparison Compound of the same test series
Description: as §2

Cc1cccc(Nc2ccccc2C(=O)OCP(C)(C)=O)c1C [Compound 1c, Dimethylphosphinyl-methyl N-(2,3-dimethylphenyl)-anthranilate]
toxicity compared with comparison compound [1]: more favourable toxicity than Compound B
Randall-Selitto test compared with comparison compound [2]: substantial improvement over the Comparison Compound
Carrageenin oedema test / anti-inflammatory activity compared with comparison compound [3]: more or less equivalent to these of the commercial compound

O=C(OCC(O)CO)c1ccccc1Nc1ccnc2cc(Cl)ccc12 (stereo not drawn) [2,3-dihydroxypropyl N-(7-chloro-4-quinolyl)-anthranilate]
analgesic activity, prior art [4]: known to have analgesic activity
solubility in water, prior art [5]: insoluble in water

CP(C)(=O)COC(=O)c1ccccc1Nc1cccc(C(F)(F)F)c1 [Compound 1a, dimethylphosphinylmethyl N-(3-trifluoromethyl-phenyl)-anthranilate]
toxicity compared with comparison compound [1]: substantially more favourable than that of Compound C
Adjuvant arthritis [6]: 5-10
adjuvant arthritis test compared with comparison compound [6]: considerably better than that of Comparision Compound C
analgesic activities compared with comparison compound [7]: clearly improved over that of Comparison Compound C

Cc1cccc(Nc2ccccc2C(=O)OCCCP(C)(C)=O)c1C [Compound 1d, Dimethylphosphinyl-propyl N-(2,3-dimethylphenyl)-anthranilate]
toxicity compared with comparison compound [1]: more favourable toxicity than Compound B
Writhing test compared with comparison compound [8]: substantial improvement over the Comparison Compound
Carrageenin oedema test / anti-inflammatory activity compared with comparison compound [3]: more or less equivalent to these of the commercial compound

O=C(O)c1ccccc1Nc1cccc(C(F)(F)F)c1 [Compound C, Flufenamic acid, reference compound]
Adjuvant arthritis [6]: 25-50

CP(C)(=O)COC(=O)c1ccccc1Nc1ccnc2cc(Cl)ccc12 [Compound 2c, 3-(dimethylphosphinyl)-methyl N-(7-chloro-4-quinolyl)-anthranilate]
Writhing test compared with comparison compound [8]: substantially better than the Comparison compound
Carrageenin oedema test / anti-inflammatory activity compared with comparison compound [3]: show an improvement compared with Compound A

CP(C)(=O)CCCOC(=O)c1ccccc1Nc1c(C(F)(F)F)cnc2ccccc12 [Compound 1f, 3-(Dimethylphosphinyl)-propyl N-(3-trifluoromethyl-4-quinolyl)-anthranilate]
analgesic activities compared with comparison compound [7]: clearly improved over that of Comparison Compound C

CP(C)(=O)CCCOC(=O)c1ccccc1Nc1ccnc2cc(Cl)ccc12 [Compound 4, 3-(dimethylphosphinyl)-propyl N-(7-chloro-4-quinolyl)-anthranilate]
Carrageenin oedema test / anti-inflammatory activity compared with comparison compound [3]: show an improvement compared with Compound A

CP(C)(=O)COC(=O)c1cccnc1Nc1cccc(C(F)(F)F)c1 [Compound 2d, 3-(dimethylphosphinyl)-methyl 2-(3-trifluoromethylanilino)-nicotinate]
toxicity compared with comparison compound [1]: more than twice that of Comparision Compouhd D
Carrageenin oedema test / anti-inflammatory activity compared with comparison compound [3]: practically almost equal to that of the Comparison Compound

CP(C)(=O)CCCOC(=O)c1ccccc1Nc1cccc(C(F)(F)F)c1 [Compound 1e, Dimethylphosphinyl-propyl N-(3-trifluoromethylphenyl)-anthranilate]
toxicity compared with comparison compound [1]: substantially more favourable than that of Compound C
Adjuvant arthritis [6]: 10-25
adjuvant arthritis test compared with comparison compound [6]: considerably better than that of Comparision Compound C

CP(C)(=O)COC(=O)c1ccccc1Nc1ccnc2c(C(F)(F)F)cccc12 [Compound 2a, dimethylphosphinylmethyl N-(8-trifluoromethyl-4-quinolyl)-anthranilate]
toxicity compared with comparison compound [1]: lower than that of Compound A
Writhing test compared with comparison compound [8]: substantially better than the Comparison compound
